Assays:
[1] = test system: Homozygous AAD-1 (v3) gene T4 plants (Arabidopsis); assay: T1 Arabidopsis postemergence herbicide dose response, AAD-1 comparison; format: in vivo, Arabidopsis thaliana
From the text: (§1) T1 plants were then randomly assigned to various rates of 2,4-D. For Arabidopsis, 50 g ae/ha 2,4-D is an effective dose to distinguish sensitive plants from ones with meaningful levels of resistance. Elevated rates were also applied to determine relative levels of resistance (50, 200, 800, or 3200 g ac/ha). Tables 10 and 11 show comparisons drawn to an aryloxyalkanoate herbicide resistance gene (AAD-1 (v3)) previously described in PCT/US2005/014737.
(§2) All auxin herbicide applications were made using the DeVilbiss sprayer as described above to apply 703 L/ha spray volume (0.4 ml solution/3-inch pot) or applied by track sprayer in a 187 L/ha spray volume. 2,4-D used was either technical grade (Sigma, St. Louis, Mo.) dissolved in DMSO and diluted in water (<1% DMSO final concentration) or the commercial dimethylamine salt formulation (456 g ac/L, NuFarm, St Joseph, Mo.). Dichlorprop used was commercial grade formulated as potassium salt of R-dichlorprop (600 g ai/L, AH Marks). As herbicide rates increased beyond 800 g ae/ha, the pH of the spray solution became exceedingly acidic, burning the leaves of young, tender Arabidopsis plants and complicating evaluation of the primary effects of the herbicides. It became standard practice to apply these high rates of herbicides in 200 mM HEPES buffer, pH 7.5.
The first Arabidopsis transformations were conducted using AAD-12 (v1) (plant optimized gene). T1 transformants were first selected from the background of untransformed seed using a glufosinate selection scheme. Over 300,000 T1 seed were screened and 316 glufosinate resistant plants were identified (PAT gene), equating to a transformation/selection frequency of 0.10% which lies in the normal range of selection frequency of constructs where PAT+Liberty are used for selection. T1 plants selected above were subsequently transplanted to individual pots and sprayed with various rates of commercial aryloxyalkanoate herbicides. Table 11 compares the response of AAD-12 (v1) and control genes to impart 2,4-D resistance to Arabidopsis T1 transformants. Response is presented in terms of % visual injury 2 WAT. […] Since each T1 is an independent transformation event, one can expect significant variation of individual T1 responses within a given rate. An arithmetic mean and standard deviation is presented for each treatment. The range in individual response is also indicated in the last column for each rate and transformation. PAT/Cry1F-transformed Arabidopsis served as an auxin-sensitive transformed control. The AAD-12 (v1) gene imparted herbicide resistance to individual T1 Arabidopsis plants. Within a given treatment, the level of plant response varied greatly and can be attributed to the fact each plant represents an independent transformation event. Of important note, at each 2,4-D rate tested, there were individuals that were unaffected while some were severely affected. […] Injury levels tend to be greater and the frequency of uninjured plants was lower at elevated rates up to 3,200 g ae/ha (or 6× field rate). Also at these high rates, the spray solution becomes highly acidic unless buffered. Arabidopsis grown mostly in the growth chamber has a very thin cuticle and severe burning effects can complicate testing at these elevated rates. Nonetheless, many individuals have survived 3.200 g ac/ha 2,4-D with little or no injury.

[2] = test system: AAD-12 (v1) gene T1 transformants (Arabidopsis); assay: T1 Arabidopsis postemergence herbicide dose response, % visual injury; format: in vivo, Arabidopsis thaliana
Procedure: Freshly harvested T1 seed [AAD-12 (v1) gene] was allowed to dry for 7 days at room temperature. T1 seed was sown in 26.5×51-cm germination trays (T.O. Plastics Inc., Clearwater, Minn.), each receiving a 200 mg aliquots of stratified T, seed (˜10,000 seed) that had previously been suspended in 40 ml of 0.1% agarose solution and stored at 4° C. for 2 days to complete dormancy requirements and ensure synchronous seed germination.
Sunshine Mix LP5 (Sun Gro Horticulture Inc., Bellevue, Wash.) was covered with fine vermiculite and subirrigated with Hoagland's solution until wet, then allowed to gravity drain. Each 40 ml aliquot of stratified seed was sown evenly onto the vermiculite with a pipette and covered with humidity domes (KORD Products, Bramalea. Ontario, Canada) for 4-5 days. Domes were removed 1 day prior to initial transformant selection using glufosinate postemergence spray (selecting for the co-transformed PAT gene).
Seven days after planting (DAP) and again 11 DAP, T1 plants (cotyledon and 2-4-lf stage, respectively) were sprayed with a 0.2% solution of Liberty herbicide (200 g ai/L glufosinate, Bayer Crop Sciences, Kansas City, Mo.) at a spray volume of 10 ml/tray (703 L/ha) using a DeVilbiss compressed air spray tip to deliver an effective rate of 280 g ai/ha glufosinate per application. Survivors (plants actively growing) were identified 4-7 days after the final spraying and transplanted individually into 3-inch pots prepared with potting media (Metro Mix 360). Transplanted plants were covered with humidity domes for 3-4 days and placed in a 22° C. growth chamber as before or moved to directly to the greenhouse. Domes were subsequently removed and plants reared in the greenhouse (22±5° C., 50±30% RH, 14 h light:10 dark, minimum 500 μE/m^2 s^1 natural+supplemental light) at least 1 day prior to testing for the ability of AAD-12 (v1) (plant optimized gene) to provide phenoxy auxin herbicide resistance.
as §1, §2
The first Arabidopsis transformations were conducted using AAD-12 (v1) (plant optimized gene). T1 transformants were first selected from the background of untransformed seed using a glufosinate selection scheme. Over 300,000 T1 seed were screened and 316 glufosinate resistant plants were identified (PAT gene), equating to a transformation/selection frequency of 0.10% which lies in the normal range of selection frequency of constructs where PAT+Liberty are used for selection. T1 plants selected above were subsequently transplanted to individual pots and sprayed with various rates of commercial aryloxyalkanoate herbicides. […]

[3] = 50 g ae/ha R-dichlorprop postemergence
[4] = 200 g ae/ha R-dichlorprop postemergence
[5] = 800 g ae/ha R-dichlorprop postemergence
[6] = 3200 g ae/ha R-dichlorprop postemergence
[7] = 50 g ae/ha 2,4-D postemergence, 2 WAT
[8] = 200 g ae/ha 2,4-D postemergence, 2 WAT
[9] = 800 g ae/ha 2,4-D postemergence, 2 WAT
[10] = 3200 g ae/ha 2,4-D postemergence, 2 WAT

Structure (SMILES): C[C@@H](Oc1ccc(Cl)cc1Cl)C(=O)O [(R)-dichlorprop, R-2,4-dichlorophenoxypropionic acid]
- % Injury 20-40% (number of individuals) [1, 3]: 0
- % Injury <20% (number of individuals) [1, 3]: 10
- % Injury >40% (number of individuals) [1, 3]: 0
- % Injury Ave [1, 3]: 0%
- % Injury 20-40% (number of individuals) [1, 4]: 0
- % Injury <20% (number of individuals) [1, 4]: 10
- % Injury >40% (number of individuals) [1, 4]: 0
- % Injury Ave [1, 4]: 0%
- % Injury 20-40% (number of individuals) [1, 5]: 0
- % Injury <20% (number of individuals) [1, 5]: 10
- % Injury >40% (number of individuals) [1, 5]: 0
- % Injury Ave [1, 5]: 0%
- % Injury 20-40% (number of individuals) [1, 6]: 0
- % Injury <20% (number of individuals) [1, 6]: 10
- % Injury >40% (number of individuals) [1, 6]: 0
- % Injury Ave [1, 6]: 0%
- % Injury 20-40% (number of individuals) [2, 3]: 0
- % Injury <20% (number of individuals) [2, 3]: 0
- % Injury >40% (number of individuals) [2, 3]: 8
- % Injury Ave [2, 3]: 63%
- % Injury 20-40% (number of individuals) [2, 4]: 0
- % Injury <20% (number of individuals) [2, 4]: 0
- % Injury >40% (number of individuals) [2, 4]: 8
- % Injury Ave [2, 4]: 85%
- % Injury 20-40% (number of individuals) [2, 5]: 0
- % Injury <20% (number of individuals) [2, 5]: 0
- % Injury >40% (number of individuals) [2, 5]: 8
- % Injury Ave [2, 5]: 96%
- % Injury 20-40% (number of individuals) [2, 6]: 0
- % Injury <20% (number of individuals) [2, 6]: 0
- % Injury >40% (number of individuals) [2, 6]: 8
- % Injury Ave [2, 6]: 98%

Structure (SMILES): O=C(O)COc1ccc(Cl)cc1Cl [2,4-D, 2,4-dichlorophenoxyacetic acid]
- % Injury 20-40% (number of individuals) [1, 7]: 0
- % Injury <20% (number of individuals) [1, 7]: 10
- % Injury >40% (number of individuals) [1, 7]: 0
- % Injury Ave [1, 7]: 0%
- % Injury 20-40% (number of individuals) [1, 8]: 0
- % Injury <20% (number of individuals) [1, 8]: 10
- % Injury >40% (number of individuals) [1, 8]: 0
- % Injury Ave [1, 8]: 0%
- % Injury 20-40% (number of individuals) [1, 9]: 0
- % Injury <20% (number of individuals) [1, 9]: 10
- % Injury >40% (number of individuals) [1, 9]: 0
- % Injury Ave [1, 9]: 0%
- % Injury 20-40% (number of individuals) [1, 10]: 1
- % Injury <20% (number of individuals) [1, 10]: 9
- % Injury >40% (number of individuals) [1, 10]: 0
- % Injury Ave [1, 10]: 2%
- % Injury 20-40% (number of individuals) [2, 7]: 0
- % Injury <20% (number of individuals) [2, 7]: 6
- % Injury >40% (number of individuals) [2, 7]: 2
- % Injury Ave [2, 7]: 16%
- % Injury 20-40% (number of individuals) [2, 8]: 1
- % Injury <20% (number of individuals) [2, 8]: 6
- % Injury >40% (number of individuals) [2, 8]: 1
- % Injury Ave [2, 8]: 11%
- % Injury 20-40% (number of individuals) [2, 9]: 2
- % Injury <20% (number of individuals) [2, 9]: 5
- % Injury >40% (number of individuals) [2, 9]: 1
- % Injury Ave [2, 9]: 15%
- % Injury 20-40% (number of individuals) [2, 10]: 0
- % Injury <20% (number of individuals) [2, 10]: 8
- % Injury >40% (number of individuals) [2, 10]: 0

Source: patent US11371055B2, “Herbicide resistance genes” (CORTEVA AGRISCIENCE LLC, priority 2005, dated 2022)
